# Laboratory results from patent US20130303509A1, “NAMPT INHIBITORS” (AbbVie Inc., priority 2012, published 2013).
# Test system: PC3 cells
# Assay: NAMPT Cell Proliferation Assay
# Assay type: cell-based
# Conditions: Homo sapiens, PC-3, 120 h, 5 days incubation, cell viability by Cell Titer Glo
# In short: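 Five-day CellTiter-Glo viability readout in PC3 cells grown in RPMI/10% heat-inactivated FBS. Compounds added after overnight attachment as a 10-fold dilution series, […]. Percent inhibition fitted to sigmoidal dose-response to derive IC50.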
row,IC50 [nM],SMILES
1,82.8,"Cc1ccc(OCC(=O)N2CCC(c3ccc(NC(=O)[C@H]4CCN(c5cccnn5)C4)cc3)CC2)cc1 [Example 636, (3S)-N-(4-{1-[(4-methylphenoxy)acetyl]piperidin-4-yl}phenyl)-1-(pyridazin-3-yl)pyrrolidine-3-carboxamide]"
2,7660,"CC(C)C(=O)N1CCC(S(=O)(=O)c2ccc(NC(=O)C3CN(c4ccnnc4)C3)cc2)CC1 [Example 614, N-(4-{[1-(2-methylpropanoyl)piperidin-4-yl]sulfonyl}phenyl)-1-(pyridazin-4-yl)azetidine-3-carboxamide]"
3,834,"CC(C)(O)C(=O)N1CCC(c2ccc(NC(=O)[C@H]3CCN(c4ccnnc4)C3)cc2)CC1 [Example 141, (3S)—N-{4-[1-(2-hydroxy-2-methylpropanoyl)piperidin-4-yl]phenyl}-1-(pyridazin-4-yl)pyrrolidine-3-carboxamide]"
4,> 10000,"CC(C)Cn1cc(-c2ccc(C(=O)N[C@H]3CCN(c4ccc(Cl)nn4)C3)o2)cn1 [Example 746, N-[(3S)-1-(6-chloropyridazin-3-yl)pyrrolidin-3-yl]-5-[1-(2-methylpropyl)-1H-pyrazol-4-yl]furan-2-carboxamide]"
5,8.33,"O=C(Nc1ccc(C2CCN(C(=O)CC(F)(F)F)CC2)cc1)[C@H]1CCN(c2cccnn2)C1 [Example 734, (3S)-1-(pyridazin-3-yl)-N-{4-[1-(3,3,3-trifluoropropanoyl)piperidin-4-yl]phenyl}pyrrolidine-3-carboxamide]"
6,0.64,"CC(C)CCC(=O)N1CCC(c2ccc(NC(=O)C3CN(c4cccnc4)C3)cc2)CC1 [Example 116, N-{4-[1-(4-methylpentanoyl)piperidin-4-yl]phenyl}-1-(pyridin-3-yl)azetidine-3-carboxamide]"
7,79.5,"O=C(Nc1ccc(OC2CCN(C(=O)c3cscn3)CC2)cc1)C1CN(c2ccnnc2)C1 [Example 272, 1-(pyridazin-4-yl)-N-(4-{[1-(1,3-thiazol-4-ylcarbonyl)piperidin-4-yl]oxy}phenyl)azetidine-3-carboxamide]"
8,7.84,"CC(C)(C)c1cc(-c2ccc(NC(=O)C3CN(c4cccnn4)C3)cc2)n(CC2CCOCC2)n1 [Example 867, N-{4-[3-tert-butyl-1-(tetrahydro-2H-pyran-4-ylmethyl)-1H-pyrazol-5-yl]phenyl}-1-(pyridazin-3-yl)azetidine-3-carboxamide]"
9,25.5,"CCC(C)CN1CCC(Oc2ccc(NC(=O)C3CN(c4cccnc4)C3)cc2)CC1 (centres unmarked) [Example 80, N-(4-{[1-(2-methylbutyl)piperidin-4-yl]oxy}phenyl)-1-(pyridin-3-yl)azetidine-3-carboxamide]"
10,0.99,"O=C(Nc1ccc(C2CCN(C(=O)CC(F)(F)F)CC2)cc1)C1CN(c2cccnn2)C1 [Example 332, 1-(pyridazin-3-yl)-N-{4-[1-(3,3,3-trifluoropropanoyl)piperidin-4-yl]phenyl}azetidine-3-carboxamide]"
11,9.65,"COCC(=O)N1CCC(Oc2ccc(NC(=O)C3CN(c4cccnn4)C3)cc2)CC1 [Example 246, N-(4-{[1-(methoxyacetyl)piperidin-4-yl]oxy}phenyl)-1-(pyridazin-3-yl)azetidine-3-carboxamide]"
12,7.87,"O=C(Nc1ccc(OC2CCN(C(=O)C3CC3)CC2)cc1)C1CN(c2cccnn2)C1 [Example 251, N-(4-{[1-(cyclopropylcarbonyl)piperidin-4-yl]oxy}phenyl)-1-(pyridazin-3-yl)azetidine-3-carboxamide]"
13,37.5,"N#Cc1cccc(C(=O)N2CCC(c3ccc(NC(=O)[C@H]4CCN(c5cccnn5)C4)cc3)CC2)c1 [Example 733, (3S)-N-{4-[1-(3-cyanobenzoyl)piperidin-4-yl]phenyl}-1-(pyridazin-3-yl)pyrrolidine-3-carboxamide]"
14,3.66,"O=C(Nc1ccc(OC2CCN(C(=O)[C@@H]3CCCO3)CC2)cc1)C1CN(c2cccnc2)C1 [Example 33, 1-(pyridin-3-yl)-N-[4-({1-[(2S)-tetrahydrofuran-2-ylcarbonyl]piperidin-4-yl}oxy)phenyl]azetidine-3-carboxamide]"
15,9.3,"CCC(C)(C)C(=O)N1CC[C@@H](Oc2ccc(NC(=O)C3CN(c4ccnnc4)C3)cc2)C1 [Example 473, N-(4-{[(3R)-1-(2,2-dimethylbutanoyl)pyrrolidin-3-yl]oxy}phenyl)-1-(pyridazin-4-yl)azetidine-3-carboxamide]"
16,78,"Cc1cccc(C(=O)N2CCC(S(=O)(=O)c3ccc(NC(=O)C4CN(c5cccnn5)C4)cc3)CC2)c1 [Example 580, N-(4-{[1-(3-methylbenzoyl)piperidin-4-yl]sulfonyl}phenyl)-1-(pyridazin-3-yl)azetidine-3-carboxamide]"
17,16,"CCCc1nc(-c2ccc(NC(=O)C3CN(c4cccnn4)C3)cc2)no1 [Example 784, N-[4-(5-propyl-1,2,4-oxadiazol-3-yl)phenyl]-1-(pyridazin-3-yl)azetidine-3-carboxamide]"
18,145,"O=C(Nc1ccc(OC2CN(C(=O)CC3CCOCC3)C2)cc1)C1CN(c2ccnnc2)C1 [Example 256, 1-(pyridazin-4-yl)-N-(4-{[1-(tetrahydro-2H-pyran-4-ylacetyl)azetidin-3-yl]oxy}phenyl)azetidine-3-carboxamide]"

row,IC50 [nM],SMILES
1,8.99,"O=C(Nc1ccc(OC2CCN(C(=O)C3CCCO3)CC2)cc1)C1CN(c2cccnn2)C1 (centres unmarked) [Example 221, 1-(pyridazin-3-yl)-N-(4-{[1-(tetrahydrofuran-2-ylcarbonyl)piperidin-4-yl]oxy}phenyl)azetidine-3-carboxamide]"
2,1.5,"O=C(Nc1ccc(C2CCN(C(=O)c3cccc(F)c3F)CC2)cc1)C1CN(c2cccnn2)C1 [Example 390, N-{4-[1-(2,3-difluorobenzoyl)piperidin-4-yl]phenyl}-1-(pyridazin-3-yl)azetidine-3-carboxamide]"
3,67.6,"O=C(Nc1ccc(C2CCN(C(=O)C3CCOC3)CC2)cc1)C1CN(c2ccnnc2)C1 (centres unmarked) [Example 542, 1-(pyridazin-4-yl)-N-{4-[1-(tetrahydrofuran-3-ylcarbonyl)piperidin-4-yl]phenyl}azetidine-3-carboxamide]"
4,196,"O=C(Nc1ccc(C2CCN(C(=O)c3ccccc3F)CC2)cc1)[C@@H]1CCN(c2cccnn2)C1 [Example 794, (3R)—N-{4-[1-(2-fluorobenzoyl)piperidin-4-yl]phenyl}-1-(pyridazin-3-yl)pyrrolidine-3-carboxamide]"
5,70.9,"O=C(Nc1ccc(O[C@@H]2CCN(C(=O)c3ccccn3)C2)cc1)C1CN(c2ccnnc2)C1 [Example 463, 1-(pyridazin-4-yl)-N-(4-{[(3R)-1-(pyridin-2-ylcarbonyl)pyrrolidin-3-yl]oxy}phenyl)azetidine-3-carboxamide]"
6,16.7,"O=C(Nc1ccc(C2CCN(C(=O)c3ccc(F)cc3)CC2)cc1F)C1CN(c2cccnn2)C1 [Example 832, N-{2-fluoro-4-[1-(4-fluorobenzoyl)piperidin-4-yl]phenyl}-1-(pyridazin-3-yl)azetidine-3-carboxamide]"
7,627,"Cc1ncccc1N1CC(C(=O)Nc2ccc(C3CCN(C(=O)CN4CCN(C)CC4)CC3)cc2)C1 [Example 173, N-(4-{1-[(4-methylpiperazin-1-yl)acetyl]piperidin-4-yl}phenyl)-1-(2-methylpyridin-3-yl)azetidine-3-carboxamide]"
8,6.81,"O=C(Nc1ccc(C2CCN(C(=O)C3CCCCC3)CC2)cc1)[C@H]1CCN(c2cccnn2)C1 [Example 730, (3S)-N-{4-[1-(cyclohexylcarbonyl)piperidin-4-yl]phenyl}-1-(pyridazin-3-yl)pyrrolidine-3-carboxamide]"
9,225,"Cc1ncccc1N1CC(C(=O)Nc2ccc(C3CCN(C(=O)CC4CCCC4)CC3)cc2)C1 [Example 162, N-{4-[1-(cyclopentylacetyl)piperidin-4-yl]phenyl}-1-(2-methylpyridin-3-yl)azetidine-3-carboxamide]"
10,62.3,"O=C(Nc1ccc(O[C@H]2CCN(C(=O)c3ccccc3F)C2)cc1)[C@H]1CCN(c2cccnn2)C1 [Example 825, (3S)—N-(4-{[(3S)-1-(2-fluorobenzoyl)pyrrolidin-3-yl]oxy}phenyl)-1-(pyridazin-3-yl)pyrrolidine-3-carboxamide]"
11,7.15,"N#Cc1ccc(C(=O)N2CCC(c3ccc(NC(=O)C4CN(c5cccnn5)C4)cc3)CC2)cc1 [Example 353, N-{4-[1-(4-cyanobenzoyl)piperidin-4-yl]phenyl}-1-(pyridazin-3-yl)azetidine-3-carboxamide]"
12,3.54,"CC(C)c1ccc(C(=O)N2CCC(c3ccc(NC(=O)C4CN(c5cccnn5)C4)cc3)CC2)cc1 [Example 392, N-(4-{1-[4-(propan-2-yl)benzoyl]piperidin-4-yl}phenyl)-1-(pyridazin-3-yl)azetidine-3-carboxamide]"
13,1.68,"CC(C)(C)C(=O)N1CCC(c2ccc(NC(=O)C3CN(c4cccnn4)C3)cc2)CC1 [Example 402, N-{4-[1-(2,2-dimethylpropanoyl)piperidin-4-yl]phenyl}-1-(pyridazin-3-yl)azetidine-3-carboxamide]"
14,164,"CC(=O)N[C@@H](CC(C)C)C(=O)N1CCC(c2ccc(NC(=O)C3CN(c4cccnc4C)C3)cc2)CC1 [Example 180, N-{4-[1-(N-acetyl-L-leucyl)piperidin-4-yl]phenyl}-1-(2-methylpyridin-3-yl)azetidine-3-carboxamide]"
15,2.63,"O=C(Nc1ccc(C2CCN(C(=O)c3cccc(F)c3)CC2)cc1)C1CN(c2ccnnc2)C1 [Example 554, N-{4-[1-(3-fluorobenzoyl)piperidin-4-yl]phenyl}-1-(pyridazin-4-yl)azetidine-3-carboxamide]"
16,712,"Cc1ncccc1N1CC(C(=O)Nc2ccc(C3CCN(C(=O)c4ccc(Cl)cc4)CC3)cc2)C1 [Example 156, N-{4-[1-(4-chlorobenzoyl)piperidin-4-yl]phenyl}-1-(2-methylpyridin-3-yl)azetidine-3-carboxamide]"
17,60.9,"Cc1ncccc1N1CC(C(=O)Nc2ccc(C3CCN(C(=O)c4ccccc4Cl)CC3)cc2)C1 [Example 151, N-{4-[1-(2-chlorobenzoyl)piperidin-4-yl]phenyl}-1-(2-methylpyridin-3-yl)azetidine-3-carboxamide]"
